Target: T1, Androgen receptor (Homo sapiens) (UniProt P10275)
T1 sequence (whole entry): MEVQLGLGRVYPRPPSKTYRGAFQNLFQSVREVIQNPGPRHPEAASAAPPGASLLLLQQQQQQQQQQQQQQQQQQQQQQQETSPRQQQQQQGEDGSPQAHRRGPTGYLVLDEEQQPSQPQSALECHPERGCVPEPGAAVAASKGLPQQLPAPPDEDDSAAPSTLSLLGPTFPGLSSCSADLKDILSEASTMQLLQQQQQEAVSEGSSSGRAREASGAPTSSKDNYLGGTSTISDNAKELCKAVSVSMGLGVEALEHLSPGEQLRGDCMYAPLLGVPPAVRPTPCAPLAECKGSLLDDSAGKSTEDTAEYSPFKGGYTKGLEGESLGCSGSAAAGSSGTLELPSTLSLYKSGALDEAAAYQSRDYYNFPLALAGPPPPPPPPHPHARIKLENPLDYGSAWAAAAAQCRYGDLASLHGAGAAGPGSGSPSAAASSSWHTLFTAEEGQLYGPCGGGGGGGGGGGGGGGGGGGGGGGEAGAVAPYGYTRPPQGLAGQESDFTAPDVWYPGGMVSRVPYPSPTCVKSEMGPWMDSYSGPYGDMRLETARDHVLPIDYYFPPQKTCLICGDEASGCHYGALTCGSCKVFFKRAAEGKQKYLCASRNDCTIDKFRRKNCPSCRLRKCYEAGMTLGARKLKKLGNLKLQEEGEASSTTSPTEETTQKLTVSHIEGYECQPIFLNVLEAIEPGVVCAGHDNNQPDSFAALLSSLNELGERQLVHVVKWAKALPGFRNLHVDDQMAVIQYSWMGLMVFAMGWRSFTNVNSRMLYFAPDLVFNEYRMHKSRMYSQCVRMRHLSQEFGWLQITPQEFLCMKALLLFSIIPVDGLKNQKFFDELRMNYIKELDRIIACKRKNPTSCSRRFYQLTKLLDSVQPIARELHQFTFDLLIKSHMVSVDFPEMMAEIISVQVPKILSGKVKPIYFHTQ
Conditions: CV-1
Description: Relative stimulatory activity compared to 5-alpha-DHT in CV-1 cells expressing androgen receptor

CC12CC[C@@H]3C4CCC(=O)CC4C[C@@H](I)[C@H]3[C@@H]1CCC2O (stereo partly specified)
RSA: 13

Source: ChEMBL document CHEMBL1132232, “7alpha-Iodo and 7alpha-fluoro steroids as androgen receptor-mediated imaging agents” (J Med Chem, 1999)
